Assay results published in US10039806B2, “Methods and compositions for treating antiprogestin-resistant cancers” (Fundación Sales, priority 2011, dated 2018).

Assays:
[1] = tested on: C4-HI or C4-HIR epithelial cells with carcinoma-associated fibroblasts; assay: (3H)-thymidine uptake, co-cultures with carcinoma-associated fibroblasts; assay type: cell-based, mouse; settings: own or other tumor's fibroblasts
Description: Trypsinized cells were resuspended and equal amounts of epithelial cells and carcinoma-associated fibroblasts were seeded with 10% FCS that was replaced after attachment by 1% steroid-stripped FCS. […] The same amount of epithelial cells or carcinoma-associated fibroblasts or double the amount of purified cells was used for comparison.
(3H)-thymidine-uptake was used as an indirect method to evaluate cell proliferation. In brief, cells were seeded into 96-well microplates. After attachment (24 h), the cells were incubated for 24 h with 1% steroid-stripped FCS and then for 48 h with the experimental solutions to be tested in 1% chFCS. Fifty percent of the medium was replaced with fresh medium every 24 h. The cells were incubated with 0.4 μCi of 3H-thymidine (specific activity: 20 Ci/mmol) for 24 h, trypsinized, and harvested in a cell harvester. In experiments in which 5azadC was used, the experiments were carried out using proliferating cells (presence of 10% FCS) to guarantee the effect of the demethylating agent. Three different experiments were made using octuplicates, and the means and standard deviations of one representative experiment of the other three are shown. The results are expressed as the proliferation index (cpm […] experimental group/cpm control; mean±SEM).

[2] = tested on: IBH-6-pSG5 tumors; assay: Xenograft in nude mice; assay type: in vivo, human; settings: MFP 10 mg/kg/day; p<0.001
Text: BH-6 cell line was developed from an invasive ductal breast carcinoma (1). IBH-6 cells express basal levels of hormone receptors, they are tumorigenic and in vivo express higher levels of PRB than PRA (2). Cells were transfected with human PRB, PRA (pSG5-PRB, pSG5-PRA, kindly provided by K. Horwitz) or with the empty vector (pSG5), together with a plasmid encoding the neomycin resistance gene pIRES-N1(3), using Lipofectamine transfection reagent (Invitrogen) following the manufacturer's instructions. Transfected and selected cells were cultured in medium supplemented with […] G418 (neomycin analogue, GIBCO). The expression of PRB and PRA were analyzed by western blot and immunofluorescence (using Ab7 and Ab6 antibodies from Thermo Fisher). T47D-YA or YB were kindly provided by K. Horwitz and cultured as previously described (4).
Transfected and selected cells were grown up to confluence, washed with PBS, detached with 0.25% trypsin, centrifuged at 1000 rpm for 10 min and resuspended in a final concentration of 10^6 (IBH-6) or 5×10^6 (T47D) cells per 100 μl of culture medium. The cells were sc inoculated into the right flank of nu/nu (IBH-6) or NOD/LtSz-scid/IL-2Rgamma null (T47D-YA or -YB cells) female mice. […]

[3] = tested on: HI-responsive tumors; assay: MPA breast cancer model, HI-responsive tumors in vivo; set-up: species or system mouse; settings: 1 mg/kg/day
[4] = target: T1, glucocorticoid receptor (Homo sapiens, UniProt P04150); settings: cited from earlier work
T1 sequence (P04150 1-777): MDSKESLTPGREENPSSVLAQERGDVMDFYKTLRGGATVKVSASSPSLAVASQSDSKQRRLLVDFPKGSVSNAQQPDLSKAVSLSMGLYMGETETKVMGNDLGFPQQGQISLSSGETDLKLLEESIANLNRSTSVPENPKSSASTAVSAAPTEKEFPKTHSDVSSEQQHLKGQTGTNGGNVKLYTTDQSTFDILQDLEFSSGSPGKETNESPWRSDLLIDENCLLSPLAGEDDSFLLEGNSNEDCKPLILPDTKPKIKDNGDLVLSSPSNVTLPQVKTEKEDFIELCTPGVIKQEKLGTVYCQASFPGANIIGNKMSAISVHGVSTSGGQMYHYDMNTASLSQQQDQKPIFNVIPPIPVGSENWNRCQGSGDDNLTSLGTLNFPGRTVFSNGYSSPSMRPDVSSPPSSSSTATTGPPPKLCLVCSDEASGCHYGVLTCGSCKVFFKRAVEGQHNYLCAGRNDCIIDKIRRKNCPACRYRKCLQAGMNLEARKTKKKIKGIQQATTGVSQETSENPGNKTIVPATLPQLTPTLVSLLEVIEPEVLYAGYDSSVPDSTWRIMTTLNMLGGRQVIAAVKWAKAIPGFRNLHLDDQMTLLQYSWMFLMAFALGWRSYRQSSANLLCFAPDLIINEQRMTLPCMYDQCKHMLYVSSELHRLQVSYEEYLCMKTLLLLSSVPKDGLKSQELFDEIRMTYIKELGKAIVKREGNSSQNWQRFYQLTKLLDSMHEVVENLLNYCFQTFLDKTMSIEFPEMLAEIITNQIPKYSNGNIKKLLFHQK

[5] = tested on: DMBA-induced mammary tumors; settings: cited from earlier work
[6] = tested on: mammary hyperplasias and carcinomas; settings: pellets of 35 mg; cited from earlier work
[7] = tested on: MCF-7 cells; settings: cited from earlier work
[8] = tested on: breast cancer; settings: cited from earlier work
[9] = tested on: meningiomas; settings: 200 mg/day for 2-31 months; after one year; cited from earlier work
[10] = tested on: mammary gland; settings: cited from earlier work
[11] = 28 postmenopausal PR+ patients, 200 mg/day

CC#C[C@]1(O)CC[C@H]2[C@@H]3CCC4=CC(=O)CCC4=C3[C@@H](c3ccc(N(C)C)cc3)C[C@@]21C [RU-486, mifepristone]
co-culture cell proliferation [1]: inhibited | in vivo growth [2]: stimulated | tumor growth [3]: inhibitory effects | antiglucocorticoid activity [4]: antiglucocorticoid effects, albeit at concentrations higher than those needed for its antiprogestin activity | tumor development ([5]; 10 mg/kg/day for 3 weeks): delayed tumor development | tumor growth ([5]; 10 mg/kg/day for 3 weeks): inhibited tumor growth | PR (and ER) expression ([5]; rat, in vivo): induced down regulation of the PR | induction of hyperplasia or carcinoma [6]: prevented the induction of either hyperplasia or carcinoma | E2-induced cell proliferation ([7]; 10 nM, 10% steroid-deficient human serum): inhibited E2-induced cell proliferation | PR-mediated cell proliferation [7]: inhibited PR-mediated cell proliferation | progesterone-induced cell proliferation ([7]; nanomolar concentrations): inhibit progesterone-induced cell proliferation | response rate ([8]; 22 patients, TAM-resistant metastases, 200 mg/day, following 3 months of therapy): 18% | side effects: lethargy ([8]; 28 postmenopausal PR+ patients, 200 mg/day, more than 8 weeks): 68% | partial response [8, 11]: 3 patients | side effects: anorexia [8, 11]: 39% | side effects: hot flashes [8, 11]: 50% | side effects: skin rash [8, 11]: 32% | side effects: vomiting [8, 11]: 29% | clinical response ([8]; eleven patients with metastases, 200-400 mg daily p.o.): objective response in one patient, six patients showed temporal stabilization, and four patients had progressive disease | tumor response [9]: Five out of thirteen tumors responded | PR activation in luminal cells ([10]; (5 mg/kg) body weight): induced activation of the PR in luminal cells to an even greater degree than did the pure agonist R5020 | MPA-induced branching ([10]; BALB/c female mice, 10 mg/kg daily, one week): reverted MPA-induced branching | mammary hyperplasia ([10]; PR-A transgenic mice or FGF2-treated mice): unable to revert mammary hyperplasia
